ChEMBL document CHEMBL1135108, “Bicyclic piperazinylbenzenesulphonamides are potent and selective 5-HT6 receptor antagonists” (Bioorg Med Chem Lett, 2002)

How the values were obtained:
[1] = molecular target: T1, 5-hydroxytryptamine receptor 1A (Homo sapiens, UniProt P08908); test: The compound was tested for the binding affinity towards human cloned 5-hydroxytryptamine 1A receptor in HEK293 cells, using [3H]8-OH-DPAT as radioligand; assay type: cell-based
T1 sequence (P08908 whole entry): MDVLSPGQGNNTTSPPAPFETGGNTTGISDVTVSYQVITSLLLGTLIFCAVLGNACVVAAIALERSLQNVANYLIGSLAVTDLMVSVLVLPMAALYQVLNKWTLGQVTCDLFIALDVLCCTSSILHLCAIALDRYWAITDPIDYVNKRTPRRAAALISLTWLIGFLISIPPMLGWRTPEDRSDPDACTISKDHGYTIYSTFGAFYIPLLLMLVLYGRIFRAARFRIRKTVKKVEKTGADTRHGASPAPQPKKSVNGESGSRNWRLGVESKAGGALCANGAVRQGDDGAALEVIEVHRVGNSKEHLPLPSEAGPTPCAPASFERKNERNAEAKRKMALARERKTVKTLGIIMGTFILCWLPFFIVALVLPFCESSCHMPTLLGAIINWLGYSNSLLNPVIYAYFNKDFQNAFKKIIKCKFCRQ

[2] = molecular target: 5-hydroxytryptamine receptor 1B (Homo sapiens, UniProt P28222); test: The compound was tested for the binding affinity towards human cloned 5-hydroxytryptamine 1B receptor in CHO cells, using [3H]5-HT as radioligand; assay type: cell-based
Chain of 5-hydroxytryptamine receptor 1B (P28222 whole entry): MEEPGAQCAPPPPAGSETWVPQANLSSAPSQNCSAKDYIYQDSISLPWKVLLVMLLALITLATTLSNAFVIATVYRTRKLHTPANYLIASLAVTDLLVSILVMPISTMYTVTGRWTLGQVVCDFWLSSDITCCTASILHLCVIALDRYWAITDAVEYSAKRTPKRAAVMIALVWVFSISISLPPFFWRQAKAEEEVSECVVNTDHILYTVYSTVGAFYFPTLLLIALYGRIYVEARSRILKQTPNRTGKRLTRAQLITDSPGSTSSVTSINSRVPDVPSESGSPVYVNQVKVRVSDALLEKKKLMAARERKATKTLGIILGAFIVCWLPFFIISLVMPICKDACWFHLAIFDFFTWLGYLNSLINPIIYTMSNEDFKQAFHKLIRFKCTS

[3] = molecular target: 5-hydroxytryptamine receptor 1D (Homo sapiens, UniProt P28221); test: The compound was tested for the binding affinity towards human cloned 5-hydroxytryptamine 1D receptor in CHO cells, using [3H]5-HT as radioligand; assay type: cell-based
Chain of 5-hydroxytryptamine receptor 1D (P28221 whole entry): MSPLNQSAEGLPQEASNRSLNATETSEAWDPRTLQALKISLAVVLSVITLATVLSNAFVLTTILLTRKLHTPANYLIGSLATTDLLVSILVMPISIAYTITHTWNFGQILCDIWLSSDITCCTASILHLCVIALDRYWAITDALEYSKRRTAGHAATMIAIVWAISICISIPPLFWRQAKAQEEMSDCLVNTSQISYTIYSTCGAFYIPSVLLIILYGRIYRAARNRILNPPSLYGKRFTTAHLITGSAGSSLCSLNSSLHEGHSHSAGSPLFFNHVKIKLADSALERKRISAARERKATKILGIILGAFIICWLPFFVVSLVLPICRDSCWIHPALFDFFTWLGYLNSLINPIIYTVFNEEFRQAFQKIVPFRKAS

[4] = molecular target: 5-hydroxytryptamine receptor 1E (Homo sapiens, UniProt P28566); test: The compound was tested for the binding affinity towards human cloned 5-hydroxytryptamine 1E receptor in CHO cells, using [3H]5-HT as radioligand; assay type: cell-based
Chain of 5-hydroxytryptamine receptor 1E (P28566 whole entry): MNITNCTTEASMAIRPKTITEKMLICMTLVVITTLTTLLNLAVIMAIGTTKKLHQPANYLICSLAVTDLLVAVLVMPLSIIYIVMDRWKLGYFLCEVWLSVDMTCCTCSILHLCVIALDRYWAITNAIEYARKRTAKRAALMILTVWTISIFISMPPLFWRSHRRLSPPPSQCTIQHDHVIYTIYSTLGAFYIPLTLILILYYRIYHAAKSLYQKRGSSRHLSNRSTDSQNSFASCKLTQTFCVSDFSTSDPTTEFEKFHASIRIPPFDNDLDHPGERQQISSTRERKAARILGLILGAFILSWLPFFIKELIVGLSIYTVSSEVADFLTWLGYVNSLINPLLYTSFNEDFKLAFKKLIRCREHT

[5] = molecular target: 5-hydroxytryptamine receptor 2A (Homo sapiens, UniProt P28223); test: The compound was tested for the binding affinity towards human cloned 5-hydroxytryptamine 2A receptor in HEK293 cells, using [3H]ketanserin as radioligand; assay type: cell-based
Chain of 5-hydroxytryptamine receptor 2A (P28223 whole entry): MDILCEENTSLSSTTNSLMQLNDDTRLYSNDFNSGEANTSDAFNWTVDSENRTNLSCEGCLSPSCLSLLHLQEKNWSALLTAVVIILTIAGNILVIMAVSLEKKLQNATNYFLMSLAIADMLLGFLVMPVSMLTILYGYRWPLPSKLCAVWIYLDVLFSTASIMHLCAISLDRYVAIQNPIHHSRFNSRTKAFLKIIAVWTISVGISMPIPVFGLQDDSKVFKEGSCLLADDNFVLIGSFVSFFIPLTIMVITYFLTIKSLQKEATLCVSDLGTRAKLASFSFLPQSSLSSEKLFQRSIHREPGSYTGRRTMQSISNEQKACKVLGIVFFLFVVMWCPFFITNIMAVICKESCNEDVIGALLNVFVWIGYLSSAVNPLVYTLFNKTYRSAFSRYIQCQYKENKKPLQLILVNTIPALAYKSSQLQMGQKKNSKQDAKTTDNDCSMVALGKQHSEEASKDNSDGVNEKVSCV

[6] = molecular target: T2, 5-hydroxytryptamine receptor 1F (Homo sapiens, UniProt P30939); test: The compound was tested for the binding affinity towards human cloned 5-hydroxytryptamine 1F receptor in CHO cells, using [3H]5-HT as radioligand; assay type: cell-based
T2 sequence (P30939 whole entry): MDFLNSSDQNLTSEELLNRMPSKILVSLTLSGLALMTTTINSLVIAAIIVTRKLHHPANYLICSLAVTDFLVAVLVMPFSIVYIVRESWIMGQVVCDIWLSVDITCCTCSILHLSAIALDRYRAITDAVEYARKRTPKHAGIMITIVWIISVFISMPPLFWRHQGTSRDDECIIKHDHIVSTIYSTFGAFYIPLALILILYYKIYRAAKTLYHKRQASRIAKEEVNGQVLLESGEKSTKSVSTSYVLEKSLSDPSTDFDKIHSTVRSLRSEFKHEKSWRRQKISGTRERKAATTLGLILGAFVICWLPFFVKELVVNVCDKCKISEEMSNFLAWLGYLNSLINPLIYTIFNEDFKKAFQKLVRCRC

[7] = molecular target: 5-hydroxytryptamine receptor 2B (Homo sapiens, UniProt P41595); test: The compound was tested for the binding affinity towards human cloned 5-hydroxytryptamine 2B receptor in HEK293 cells, using [3H]5-HT as radioligand; assay type: cell-based
Chain of 5-hydroxytryptamine receptor 2B (P41595 whole entry): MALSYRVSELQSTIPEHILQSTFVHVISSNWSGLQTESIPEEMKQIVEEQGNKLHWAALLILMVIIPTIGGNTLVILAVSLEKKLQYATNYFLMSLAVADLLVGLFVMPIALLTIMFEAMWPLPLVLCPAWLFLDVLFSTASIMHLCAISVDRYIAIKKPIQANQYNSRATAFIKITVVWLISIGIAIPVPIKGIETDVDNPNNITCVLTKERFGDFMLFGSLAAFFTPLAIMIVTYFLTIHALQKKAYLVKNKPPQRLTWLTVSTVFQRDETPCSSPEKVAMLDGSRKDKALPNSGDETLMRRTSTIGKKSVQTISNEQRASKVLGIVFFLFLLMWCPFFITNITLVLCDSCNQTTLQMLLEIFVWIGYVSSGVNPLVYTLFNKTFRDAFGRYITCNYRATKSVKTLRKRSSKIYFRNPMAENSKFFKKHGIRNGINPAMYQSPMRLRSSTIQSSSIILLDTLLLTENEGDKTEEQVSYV

[8] = molecular target: T3, 5-hydroxytryptamine receptor 2C (Homo sapiens, UniProt P28335); test: The compound was tested for the binding affinity towards human cloned 5-hydroxytryptamine 2C receptor in HEK293 cells, using […] as radioligand; assay type: cell-based
T3 sequence (P28335 whole entry): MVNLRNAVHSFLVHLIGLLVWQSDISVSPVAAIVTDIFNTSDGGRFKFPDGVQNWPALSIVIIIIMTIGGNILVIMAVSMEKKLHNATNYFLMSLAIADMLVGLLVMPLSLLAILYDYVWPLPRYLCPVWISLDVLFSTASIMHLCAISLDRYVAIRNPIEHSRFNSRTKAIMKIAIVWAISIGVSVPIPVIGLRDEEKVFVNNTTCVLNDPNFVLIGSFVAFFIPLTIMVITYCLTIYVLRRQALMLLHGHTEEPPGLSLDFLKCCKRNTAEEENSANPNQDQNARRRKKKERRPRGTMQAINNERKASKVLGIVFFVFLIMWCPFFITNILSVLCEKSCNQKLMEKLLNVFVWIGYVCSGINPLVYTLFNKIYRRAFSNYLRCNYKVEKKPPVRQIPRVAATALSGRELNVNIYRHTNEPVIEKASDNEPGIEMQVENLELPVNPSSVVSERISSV

[9] = molecular target: 5-hydroxytryptamine receptor 4 (Homo sapiens, UniProt Q13639); test: The compound was tested for the binding affinity towards human cloned 5-hydroxytryptamine 4 receptor in HeLa cells, using [3H]LSD as radioligand; assay type: cell-based
Chain of 5-hydroxytryptamine receptor 4 (Q13639 whole entry): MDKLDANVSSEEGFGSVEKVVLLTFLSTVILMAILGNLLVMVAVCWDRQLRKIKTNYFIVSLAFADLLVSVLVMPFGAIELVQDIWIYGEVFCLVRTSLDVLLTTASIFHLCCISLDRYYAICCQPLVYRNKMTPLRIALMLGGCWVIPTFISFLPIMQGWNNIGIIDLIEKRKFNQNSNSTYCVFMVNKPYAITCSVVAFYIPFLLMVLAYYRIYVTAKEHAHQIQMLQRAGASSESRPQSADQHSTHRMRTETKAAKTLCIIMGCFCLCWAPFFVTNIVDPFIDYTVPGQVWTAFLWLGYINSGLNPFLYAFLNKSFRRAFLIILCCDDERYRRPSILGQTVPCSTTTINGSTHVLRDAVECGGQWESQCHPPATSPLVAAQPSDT

[10] = molecular target: 5-hydroxytryptamine receptor 7 (Homo sapiens, UniProt P34969); test: The compound was tested for the binding affinity towards human cloned 5-hydroxytryptamine 7 receptor in HEK293 cells, using [3H]5-CT as radioligand; assay type: cell-based
Chain of 5-hydroxytryptamine receptor 7 (P34969 whole entry): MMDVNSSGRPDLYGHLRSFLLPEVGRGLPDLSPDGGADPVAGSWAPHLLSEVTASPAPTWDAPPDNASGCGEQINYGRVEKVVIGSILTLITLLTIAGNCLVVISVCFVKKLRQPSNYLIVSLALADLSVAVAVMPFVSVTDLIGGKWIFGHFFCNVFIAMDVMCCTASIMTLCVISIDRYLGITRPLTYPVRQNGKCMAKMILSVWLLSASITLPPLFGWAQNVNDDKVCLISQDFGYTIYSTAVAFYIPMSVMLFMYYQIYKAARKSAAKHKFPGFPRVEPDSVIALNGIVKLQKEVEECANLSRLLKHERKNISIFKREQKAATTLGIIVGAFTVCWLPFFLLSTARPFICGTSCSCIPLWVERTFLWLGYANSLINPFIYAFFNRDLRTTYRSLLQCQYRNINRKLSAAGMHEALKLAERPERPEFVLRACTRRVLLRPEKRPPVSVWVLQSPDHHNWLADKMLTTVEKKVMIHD

[11] = molecular target: T4, 5-hydroxytryptamine receptor 6 (Homo sapiens, UniProt P50406); test: The compound was tested for the binding affinity towards human cloned 5-hydroxytryptamine 6 receptor in HeLa cells, using […] as radioligand; n=3; assay type: cell-based
T4 sequence (P50406 whole entry): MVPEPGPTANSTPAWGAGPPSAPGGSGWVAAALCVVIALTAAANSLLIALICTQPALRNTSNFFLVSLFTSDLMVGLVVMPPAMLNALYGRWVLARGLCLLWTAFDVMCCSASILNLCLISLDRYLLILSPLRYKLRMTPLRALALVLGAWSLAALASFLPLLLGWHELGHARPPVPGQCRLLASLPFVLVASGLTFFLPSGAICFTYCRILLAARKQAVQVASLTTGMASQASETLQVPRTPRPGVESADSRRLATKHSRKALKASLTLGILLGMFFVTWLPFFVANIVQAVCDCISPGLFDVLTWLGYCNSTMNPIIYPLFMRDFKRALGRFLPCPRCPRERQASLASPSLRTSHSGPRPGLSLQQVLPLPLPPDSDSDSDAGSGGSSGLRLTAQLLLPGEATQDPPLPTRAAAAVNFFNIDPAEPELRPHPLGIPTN

[12] = molecular target: T5, Alpha-1B adrenergic receptor (Homo sapiens, UniProt P35368); test: The compound was tested for the binding affinity towards Alpha-1B adrenergic receptor
T5 sequence (P35368 whole entry): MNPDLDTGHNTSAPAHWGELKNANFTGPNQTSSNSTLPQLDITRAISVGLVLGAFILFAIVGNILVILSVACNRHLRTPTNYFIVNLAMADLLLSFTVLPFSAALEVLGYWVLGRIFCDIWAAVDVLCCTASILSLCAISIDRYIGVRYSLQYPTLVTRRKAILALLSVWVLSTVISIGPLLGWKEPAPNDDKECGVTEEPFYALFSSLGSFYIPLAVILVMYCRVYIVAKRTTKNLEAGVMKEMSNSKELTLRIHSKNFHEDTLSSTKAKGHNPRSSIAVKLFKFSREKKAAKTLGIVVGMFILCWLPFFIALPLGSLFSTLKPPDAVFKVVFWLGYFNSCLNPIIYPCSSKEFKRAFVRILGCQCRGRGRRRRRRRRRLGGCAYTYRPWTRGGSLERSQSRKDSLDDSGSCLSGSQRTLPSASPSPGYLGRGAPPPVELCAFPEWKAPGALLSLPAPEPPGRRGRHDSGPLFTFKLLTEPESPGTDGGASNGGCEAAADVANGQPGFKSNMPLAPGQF

D(2) dopamine receptor = D(2) dopamine receptor (Homo sapiens, UniProt P14416); test: The compound was tested for the binding affinity towards human cloned Dopamine receptor D2 in CHO cells, using [125I]iodosulpride as radioligand; assay type: cell-based
Chain of D(2) dopamine receptor (P14416 whole entry): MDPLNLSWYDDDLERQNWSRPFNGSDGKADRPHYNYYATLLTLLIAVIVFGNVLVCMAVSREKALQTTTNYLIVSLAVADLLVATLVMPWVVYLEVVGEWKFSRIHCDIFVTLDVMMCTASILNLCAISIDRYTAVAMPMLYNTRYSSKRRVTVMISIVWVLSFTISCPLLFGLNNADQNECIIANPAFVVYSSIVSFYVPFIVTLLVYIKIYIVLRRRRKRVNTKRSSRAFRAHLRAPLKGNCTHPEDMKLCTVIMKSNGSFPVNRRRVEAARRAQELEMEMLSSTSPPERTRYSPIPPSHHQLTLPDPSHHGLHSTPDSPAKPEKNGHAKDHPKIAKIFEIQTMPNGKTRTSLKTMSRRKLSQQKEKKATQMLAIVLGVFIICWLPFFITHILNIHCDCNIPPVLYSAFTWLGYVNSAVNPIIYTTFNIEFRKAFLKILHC

D(3) dopamine receptor = D(3) dopamine receptor (Homo sapiens, UniProt P35462); test: The compound was tested for the binding affinity towards human cloned Dopamine receptor D3 in CHO cells, using [125I]iodosulpride as radioligand; assay type: cell-based
Chain of D(3) dopamine receptor (P35462 whole entry): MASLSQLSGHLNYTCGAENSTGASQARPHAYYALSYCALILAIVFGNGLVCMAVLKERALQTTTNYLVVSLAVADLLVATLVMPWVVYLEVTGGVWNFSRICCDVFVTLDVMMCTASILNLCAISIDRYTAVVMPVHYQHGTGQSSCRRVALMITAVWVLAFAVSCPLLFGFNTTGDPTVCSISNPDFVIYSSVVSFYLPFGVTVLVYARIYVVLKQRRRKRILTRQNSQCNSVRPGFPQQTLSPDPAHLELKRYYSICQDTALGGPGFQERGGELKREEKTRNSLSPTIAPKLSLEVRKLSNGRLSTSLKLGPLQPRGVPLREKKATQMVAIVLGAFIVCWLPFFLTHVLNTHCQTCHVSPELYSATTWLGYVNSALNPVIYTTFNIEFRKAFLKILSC

[13] = molecular target: T4, 5-hydroxytryptamine receptor 6; test: The compound was tested for the binding affinity towards human cloned 5-hydroxytryptamine 6 receptor in HeLa cells, using […] as radioligand; n=9; assay type: cell-based

SMILES | Ki [1] [nM] | Ki [2] [nM] | Ki [3] [nM] | Ki [4] [nM] | Ki [5] [nM] | Ki [6] [nM] | Ki [7] [nM] | Ki [8] [nM] | Ki [9] [nM] | Ki [10] [nM] | Ki [11] [nM] | Ki [12] [nM] | Ki (D(2) dopamine receptor) [nM] | Ki (D(3) dopamine receptor) [nM] | Ki [13] [nM]
COc1ccc(NS(=O)(=O)c2sc3ccc(Cl)cc3c2C)cc1N1CCN2CCC[C@@H]2C1 | 200 | 631 | 126 | 1000 | 1260 | 200 | 1260 | 631 | 1580 | 631 | 0.794 | 1000 | 2000 | 631 | –
COc1ccc(NS(=O)(=O)c2sc3ccc(Cl)cc3c2C)cc1N1CCN2CCCCC2C1 (configuration not stated) | 631 | 3980 | 316 | > 1000 | 631 | > 1000 | 2000 | > 3160 | > 7940 | > 7940 | 5.01 | 2000 | 398 | 1000 | –
COc1ccc(NS(=O)(=O)c2sc3ccc(Cl)cc3c2C)cc1N1CCN2CCC[C@H]2C1 | 126 | 631 | 100 | 1580 | 251 | 316 | 1260 | 398 | 5010 | 1000 | – | 1580 | 1580 | 316 | 0.794
